In the assay the target is T1, Human HPK1, catalytic domain (Homo sapiens, UniProt Q92918).
T1 construct: purchased Carna
T1 sequence (Q92918 1-346): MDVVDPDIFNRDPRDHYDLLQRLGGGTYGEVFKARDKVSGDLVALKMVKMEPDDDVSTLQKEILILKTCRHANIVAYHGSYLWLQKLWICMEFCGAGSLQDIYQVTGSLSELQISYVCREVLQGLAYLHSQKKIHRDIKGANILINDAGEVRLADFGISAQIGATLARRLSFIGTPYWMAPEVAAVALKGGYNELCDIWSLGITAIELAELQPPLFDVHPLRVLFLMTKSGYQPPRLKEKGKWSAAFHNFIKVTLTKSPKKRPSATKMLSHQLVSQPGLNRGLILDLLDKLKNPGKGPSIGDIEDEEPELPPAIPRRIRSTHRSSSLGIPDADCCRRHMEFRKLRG
Kind of assay: HPK1-SLP76 TR-FRET assay. Type of assay: biochemical. As to conditions: 75 pM HPK1, 10 uM ATP, 10 nM SLP76, 30 min compound pre-incubation.

What is called IC50 is the concentration that gives 50% inhibition. Read a high IC50 as a need for much substance.

SMILES strings stand for the structures.

`COc1cc2c(cc1Nc1ncc(C(N)=O)c(Nc3cccc(C)c3)n1)CN(C)CC2` [Example 7-22, 2-[(6-methoxy-2-methyl-1,2,3,4-tetrahydroisoquinolin-7-yl)amino]-4-[(3-methylphenyl)amino]pyrimidine-5-carboxamide] showed an IC50 of 0.81 nM.

On to `CNC(=O)c1cccc(Nc2nc(Nc3cc4c(cc3F)CCN(C)C4)ncc2C(N)=O)c1` [Example 7-41, 2-[(6-fluoro-2-methyl-1,2,3,4-tetrahydroisoquinolin-7-yl)amino]-4-{[3-(methylcarbamoyl)phenyl]amino} pyrimidine-5-carboxamide], for which half-maximal inhibition (IC50) was put at 8.85 nM.

Take `Cc1cccc(Nc2ncc(C(N)=O)c(Nc3cccc4c3CCNC4=O)n2)c1` [Example 25-19, 2-[(3-methylphenyl)amino]-4-[(1-oxo-1,2,3,4-tetrahydroisoquinolin-5-yl)amino]pyrimidine-5-carboxamide]: inhibition was half-maximal at 2.61 nM (IC50).

`COc1cc2c(cc1Nc1ncc(C(N)=O)c(Nc3cccc(CN(C)CC(=O)O)c3)n1)CN(C)CC2` [Example 7-34, N-{[3-({5-carbamoyl-2-[(6-methoxy-2-methyl-1,2,3,4-tetrahydroisoquinolin-7-yl)amino]pyrimidin-4-yl}amino)phenyl]methyl}-N-methylglycine] showed an IC50 of 2.43 nM.

For `COc1cc2c(cc1Nc1ncc(C(N)=O)c(Nc3c(C)noc3C)n1)CN(C)CC2` [Example 7-83, 4-((3,5-dimethylisoxazol-4-yl)amino)-2-((6-methoxy-2-methyl-1,2,3,4-tetrahydroisoquinolin-7-yl)amino)pyrimidine-5-carboxamide], 4.84 nM corresponded to half-maximal inhibition (IC50).

Molecule `COc1cc2c(cc1Nc1ncc(C(N)=O)c(N[C@@H]3COC[C@H]3SC)n1)CN(C)CC2` [Example 26-8, 2-[(6-methoxy-2-methyl-1,2,3,4-tetrahydroisoquinolin-7-yl)amino]-4-{[(3R,4S)-4-(methylsulfanyl)oxolan-3-yl]amino}pyrimidine-5-carboxamide] had an IC50 of 0.95 nM.

As to `CCc1ccc(Nc2ncc(C(N)=O)c(Nc3cccc4c3CCNC4=O)n2)cc1` [Example 25-9, 2-[(4-ethylphenyl)amino]-4-[(1-oxo-1,2,3,4-tetrahydroisoquinolin-5-yl)amino]pyrimidine-5-carboxamide], half-maximal inhibition (IC50) required 12.1 nM.

In turn, `COc1cc2c(cc1Nc1ncc(C(N)=O)c(NC3CC[C@H]4NCCC[C@@H]34)n1)CN(C)CC2` (stereo partly drawn) [Example 26-10, 2-[(6-methoxy-2-methyl-1,2,3,4-tetrahydroisoquinolin-7-yl)amino]-4-{[(4aR,7aR)-octahydro-1H-cyclopenta[b]pyridin-5-yl]amino}pyrimidine-5-carboxamide] registered a half-maximal inhibitory concentration (IC50) of 1.06 nM.

Consider `COc1cc2c(cc1Nc1ncc(C(N)=O)c(NCc3cnc4ccccn34)n1)CN(C)CC2` [Example 26-56, 4-{[(imidazo[1,2-a]pyridin-3-yl)methyl]amino}-2-[(6-methoxy-2-methyl-1,2,3,4-tetrahydroisoquinolin-7-yl)amino]pyrimidine-5-carboxamide], for which the half-maximal inhibitory concentration (IC50) amounted to 777 nM.

On to `CS(=O)(=O)Cc1ccc(Nc2ncc(C(N)=O)c(Nc3cccc4c3CCNC4=O)n2)cc1` [Example 7-59, 2-({4-[(methylsulfonyl)methyl]phenyl}amino)-4-[(1-oxo-1,2,3,4-tetrahydroisoquinolin-5-yl)amino]pyrimidine-5-carboxamide], for which inhibition was half-maximal at 2.15 nM (IC50).

The molecule `COc1cc2c(cc1Nc1ncc(C(N)=O)c(Nc3c(F)ccc(C)c3Cl)n1)CN(C)CC2` [Example 4-16] showed an IC50 of 0.1 nM.

The molecule `Cc1cccc(F)c1Nc1nc(Nc2c(C)n[nH]c2C)ncc1C(N)=O` [Example 4-34, 2-[(3,5-dimethyl-1H-pyrazol-4-yl)amino]-4-[(2-fluoro-6-methylphenyl)amino] pyrimidine-5-carboxamide] yielded an IC50 of 65.1 nM.

In turn, `COCCOCCOCC(=O)N1CCc2cc(OC)c(Nc3ncc(C(N)=O)c(Nc4ccccc4Br)n3)cc2C1` [Example 12-1, 4-[(2-bromophenyl)amino]-2-[(6-methoxy-2-{[2-(2-methoxyethoxy)ethoxy)accetyl}-1,2,3,4-tetrahydroisoquinolin-7-yl)amino]pyrimidine-5-carboxamide] gave an IC50 of 117 nM.

In turn, `COc1cc2c(cc1Nc1ncc(C(N)=O)c(Nc3ccccc3Br)n1)CN(C(=O)C1CCC1)CC2` [Example 12-9, 4-[(2-bromophenyl)amino]-2-{[2-(cyclobutanecarbonyl)-6-methoxy-1,2,3,4-tetrahydroisoquinolin-7-yl]amino}pyrimidine-5-carboxamide] came in with an IC50 of 172 nM.

Consider `COc1cc2c(cc1Nc1ncc(C(N)=O)c(N[C@H]3c4ccccc4C[C@H]3O)n1)CN(C)CC2` [Example 26-63, 4-{[(1S,2R)-2-hydroxy-2,3-dihydro-1H-inden-1-yl]amino}-2-[(6-methoxy-2-methyl-1,2,3,4-tetrahydroisoquinolin-7-yl)amino]pyrimidine-5-carboxamide], for which the IC50 was 109 nM.

Consider `COc1cc2c(cc1Nc1ncc(C(N)=O)c(Nc3cccc(C4(C#N)CC4)c3)n1)CN(C)CC2` [Example 7-32, 4-{[3-(1-cyanocyclopropyl)phenyl]amino}-2-[(6-methoxy-2-methyl-1,2,3,4-tetrahydroisoquinolin-7-yl)amino]pyrimidine-5-carboxamide], for which 0.41 nM corresponded to half-maximal inhibition (IC50).

`COc1cc2c(cc1Nc1ncc(C(N)=O)c(N[C@H]3CCc4ccccc43)n1)CN(C)CC2` [Example 26-37, 4-{[(1S)-2,3-dihydro-1H-inden-1-yl]amino}-2-[(6-methoxy-2-methyl-1,2,3,4-tetrahydroisoquinolin-7-yl)amino]pyrimidine-5-carboxamide] had an IC50 of 0.38 nM.

`Cc1cccc(F)c1Nc1nc(Nc2ccc(S(C)(=O)=O)cc2)ncc1C(N)=O` [Example 4-25, 4-[(2-fluoro-6-methylphenyl)amino]-2-{[4-(methylsulfonyl)phenyl]amino} pyrimidine-5-carboxamide] showed a half-inhibitory concentration (IC50) of 81.6 nM.

In turn, `COc1cc2c(cc1Nc1ncc(C(N)=O)c(Nc3ccccc3Br)n1)CN(C(=O)C1(C)CCC1)CC2` [Example 12-8, 4-[(2-bromophenyl)amino]-2-{[6-methoxy-2-(1-methylcyclobutane-1-carbonyl)-1,2,3,4-tetrahydroisoquinolin-7-yl]amino}pyrimidine-5-carboxamide] had an IC50 of 344 nM.

In the case of `COc1cc2c(cc1Nc1ncc(C(N)=O)c(N[C@H](CO)C3CCCCC3)n1)CN(C)CC2` [Example 26-48, 4-{[(1S)-1-cyclohexyl-2-hydroxyethyl]amino}-2-[(6-methoxy-2-methyl-1,2,3,4-tetrahydroisoquinolin-7-yl)amino]pyrimidine-5-carboxamide], the midpoint of inhibition, the IC50, lay at 22.8 nM.

`Cn1cc([C@@H]2C[C@H]2C(=O)Nc2ncc(C(N)=O)c(Nc3ccccc3Br)n2)cn1` (racemic) [Example 22-1, 4-((2-bromophenyl)amino)-2-((trans)-2-(1-methyl-1H-pyrazol-4-yl)cyclopropane-1-carboxamido)pyrimidine-5-carboxamide]: the IC50 worked out at 370 nM.

`NC(=O)c1cnc(Nc2ccc3c(c2)C(=O)OCC3)nc1Nc1ccccc1Br` [Example 7-106, 4-[(2-bromophenyl)amino]-2-[(1-oxo-3,4-dihydro-1H-2-benzopyran-7-yl)amino]pyrimidine-5-carboxamide] returned an IC50 of 63.8 nM.

For the molecule `COc1cc2c(cc1Nc1ncc(C(N)=O)c(Nc3c(F)cccc3C(F)(F)F)n1)CN(CC(C)(C)O)CC2` [Example 5-1, 4-((2-Fluoro-6-(trifluoromethyl)phenyl)amino)-2-((2-(2-hydroxy-2-methylpropyl)-6-methoxy-1,2,3,4-tetrahydroisoquinolin-7-yl)amino)pyrimidine-5-carboxamide], the IC50 was 2.97 nM.

With `COc1cc2c(cc1Nc1ncc(C(N)=O)c(Nc3cccc4nnc(C)cc34)n1)CN(C)CC2` [Example 7-6, 2-[(6-methoxy-2-methyl-1,2,3,4-tetrahydroisoquinolin-7-yl)amino]-4-[(3-methylcinnolin-5-yl)amino]pyrimidine-5-carboxamide], half-maximal inhibition (IC50) was put at 70.5 nM.

`NC(=O)c1cnc(NCc2c(Cl)cccc2Cl)nc1Nc1cccc2c1CCNC2=O` [Example 25-24, 2-{[(2,6-dichlorophenyl)methyl]amino}-4-[(1-oxo-1,2,3,4-tetrahydroisoquinolin-5-yl)amino]pyrimidine-5-carboxamide] came in with an IC50 of 230 nM.

With `COc1nn(CC(F)(F)F)cc1Nc1ncc(C(N)=O)c(Nc2cccc3c2CCN(C)C3)n1` [Example 7-62, 2-{[3-methoxy-1-(2,2,2-trifluoroethyl)-1H-pyrazol-4-yl]amino}-4-[(2-methyl-1,2,3,4-tetrahydroisoquinolin-5-yl)amino]pyrimidine-5-carboxamide], the IC50 came out at 56 nM.

Turning to `COCCC(=O)N1CCc2cc(OC)c(Nc3ncc(C(N)=O)c(Nc4ccccc4Br)n3)cc2C1` [Example 12-4, 4-[(2-bromophenyl)amino]-2-{[6-methoxy-2-(3-methoxypropanoyl)-1,2,3,4-tetrahydroisoquinolin-7-yl]amino}pyrimidine-5-carboxamide], 380 nM corresponded to half-maximal inhibition (IC50).

Turning to `N#CC1(c2cccc(Nc3ncc(C(N)=O)c(Nc4cccc5c4CCNC5=O)n3)c2)CC1` [Example 25-4, 2-{[3-(1-cyanocyclopropyl)phenyl]amino}-4-[(1-oxo-1,2,3,4-tetrahydroisoquinolin-5-yl)amino]pyrimidine-5-carboxamide], it took 2.78 nM to reach half-maximal inhibition (IC50).

In turn, `C[C@@H](Nc1ncc(C(N)=O)c(Nc2cccc3c2CCNC3=O)n1)c1ccc(F)cc1` [Example 25-8, 2-{[(1R)-1-(4-fluorophenyl)ethyl]amino}-4-[(1-oxo-1,2,3,4-tetrahydroisoquinolin-5-yl)amino]pyrimidine-5-carboxamide] came in with a half-maximal inhibitory concentration (IC50) of 176 nM.

(Values after patent US20230416225A1, “DIAMINOPYRIMIDINE CARBOXAMIDE INHIBITORS OF HPK1” (MERCK SHARP & DOHME LLC, priority 2020, published 2023).)
